Patent US11963966B2, “Compositions and methods for treating ovarian tumors” (Dana-Farber Cancer Institute, Inc., priority 2017, dated 2024)
Like-named read-outs stand apart in the source and are kept apart here.

Assays:
[1] = tested on: platinum-resistant ex vivo spheroid cultures of patients DF3266, DF3288, DF3291; experiment: Drug sensitivity testing with the growth in low attachment (GILA) assay; assay type: cell-based
Procedure: (§1) FIG. 6A-FIG. 6G are a series of graphs and images depicting the impact of JAK/STAT-inhibition on spheroid formation, invasion and killing ex vivo and in vitro. FIG. 6A a histogram (FIG. 11B), showing drug screening with 14 compounds (at 1 μM) inhibiting the JAK/STAT pathway in OVACR4. Relative viability compared to DMSO control measured by CTG. […] The same library was screened in 2D-cultures of OVACR4 (FIG. 11A), and 2D-cultures of OVACR8 (FIG. 11C) and 3D-cultures of OVACR8 (FIG. 11D). FIG. 6B is a series of plots showing drug sensitivity testing using the GILA assay in platinum-resistant ex vivo spheroid cultures of patients DF3291 and DF3266, The X-axis indicates the log μM concentration of drugs indicated in the legend, Y-axis indicates the percentage of luminescence signal as indicator for viability relatively to DMSO treated cells. In both patients, half maximal effective concentration (EC50) were ˜100 nM and ˜10 nM, respectively, while other drugs routinely used for the treatment of (platinum-resistant) ovarian cancer had EC50>10 μM. FIG. 6C is a series of images of microscopic analysis of spheroids with different drug treatments to highlight the morphologic changes during therapy with drugs listed. Inhibition of JAK/STAT pathway disrupts ex vivo spheroid cultures. […] The X-axis indicates established ovarian cancer cell line ID. Y-axis indicates the relative number of formed spheroids when treated with either JSI-124 or carboplatin compared to untreated parental controls. Error bars indicate the standard deviation from the mean number of spheroids. […] JAK/STAT inhibition prevents spheroid formation. […] The Y-axis indicates the clearance ability (using arbitrary units). 20 spheroids clusters were analyzed for each iteration. Data is shown as mean (horizontal bar), interquartile range (box), and minimum and maximum (whiskers). Statistical analysis was performed using 1-way analysis of variance (ANOVA) and post hoc Tukey-Kramer **P<0.05. […] FIG. 6G is a histogram showing the inhibition of the JAK/STAT pathway.
Single-cell RNA-sequencing was performed on these platinum-resistant patient samples, using the growth in low attachment (GILA) assay (Rotem et al., 2015 Proc. Natl. Acad. Sci. U.S.A, 112:5708-5713; B. Izar and A. Rotem, 2016 Curr. Protoc. Mol. Biol., 116:28.8.1-28.8.12). […] In contrast, all spheroid cultures were resistant to carboplatin, cisplatin, olaparib and paclitaxel at a similar dose range, with the exception of cisplatin with an EC50 of ˜10 μM in patients DF3266 and DF3288.

[2] = tested on: established ovarian cancer cell lines (OVCAR4, OVCAR8, OVASHO, TYKNU, Kuramachi); experiment: Spheroid formation in low adherent surface culture; assay type: cell-based
Procedure: as §1, with “pathway. […]” for “pathway.”

[3] = tested on: STAT3 activity in Heya8 cells; experiment: STAT3-dependent luciferase assay after oncostatin M (OSM) stimulation; assay type: cell-based; settings: Heya8 cells pre-treated 1 hour vs DMSO, then OSM stimulation
[4] = tested on: PDX model DF20 SC tumors; experiment: PDX model DF20, SC injected cancer cells, IP JSI-124 vs vehicle, BLI; assay type: in vivo, mice
Procedure: (§2) FIG. 7A-FIG. 7E are a series of graphs and images that depict the impact of JAK/STAT-inhibition on spheroid formation in vivo and anti-tumor activity. […] Each of these were performed following intraperitoneal (IP) or subcutaneous (SC) injection of cancer cells followed by IP therapy with JSI-124 vs. vehicle. Each group includes 5 mice. The inverted triangle indicates the time=0 of cancer cell injection. […] Mice were injected IP with tumor cells and one week later started treatment for a total 14 days. Each group includes 5 mice. Y-axis indicates log of bioluminescence imaging (BLI) signal (log total flux in p/s). Values are given as mean of log BLI signal, error bars indicate standard deviation from the mean. ***p<0.0001 (two-sided t test comparing mean±STDEV at Day 15 of treatment). […] Each group includes 5 mice. Y-axis indicates log BLI signal (log total flux in p/s). Values are given as mean of log BLI signal, error bars indicate standard deviation from the mean. ***p<0.0001 (two-sided t test comparing mean±STDEV at Day 15 of treatment). […] Mice were injected SC with tumor cells and one week later started treatment for a total 14 days. Each group includes 5 mice. Y-axis indicates log BLI signal (log total flux in p/s). Values are given as mean of log BLI signal, error bars indicate standard deviation from the mean. ***p<0.0001 (two-sided t test comparing mean±STDEV at Day 15 of treatment). […] Each group includes 5 mice. Y-axis indicates log BLI signal (log total flux in p/s). Values are given as mean of log BLI signal, error bars indicate standard deviation from the mean. ***p<0.0001 (two-sided t test comparing mean±STDEV at Day 15 of treatment).
(§3) A frequently used treatment modality for advanced ovarian cancer is the intraperitoneal administration of chemotherapy, such as cisplatin, which has local effects, but is also systemically reabsorbed to treat potential metastatic disease. […] Tumor growth was compared following IP JSI-124 treatment v. vehicle.

[5] = tested on: OVACR8; experiment: Screen of 14 JAK/STAT pathway inhibitors, CellTiterGlo viability, 2D and 3D cultures; assay type: cell-based; settings: OVACR8, 1 μM, 2D and 3D culture
Procedure: FIG. 6A-FIG. 6G are a series of graphs and images depicting the impact of JAK/STAT-inhibition on spheroid formation, invasion and killing ex vivo and in vitro. FIG. 6A a histogram (FIG. 11B), showing drug screening with 14 compounds (at 1 μM) inhibiting the JAK/STAT pathway in OVACR4. Relative viability compared to DMSO control measured by CTG. […] The same library was screened in 2D-cultures of OVACR4 (FIG. 11A), and 2D-cultures of OVACR8 (FIG. 11C) and 3D-cultures of OVACR8 (FIG. 11D). FIG. 6B is a series of plots showing drug sensitivity testing using the GILA assay in platinum-resistant ex vivo spheroid cultures of patients DF3291 and DF3266, The X-axis indicates the log μM concentration of drugs indicated in the legend, Y-axis indicates the percentage of luminescence signal as indicator for viability relatively to DMSO treated cells. In both patients, half maximal effective concentration (EC50) were ˜100 nM and ˜10 nM, respectively, while other drugs routinely used for the treatment of (platinum-resistant) ovarian cancer had EC50>10 μM. […] 20 spheroids clusters were analyzed for each iteration. […]
FIG. 11A-FIG. 11E are a series of histograms of OVACR4 and OVACR8 ovarian cancer cell lines grown in 2D and 3D cultures and treated with 14 JAK/STAT pathway inhibitors at 1 μM. Vability of the cells was determined using the CellTiterGlo assay. […]

[6] = tested on: PDX model DF20 malignant ascites; experiment: PDX model DF20, IP injected cancer cells (malignant ascites), IP JSI-124 vs vehicle, BLI; assay type: in vivo, mice
Procedure: as §2

[7] = Adverse effects in JSI-124 treated PDX mice; assay type: in vivo; settings: IP JSI-124 treated PDX mice
Excerpt: as §3

[8] = SC tumors established 3 weeks, then IP treatment 14 days
[9] = SC tumors established 7 days, then 14 days IP therapy
[10] = ascites allowed to form 3 weeks, then IP treatment 14 days
[11] = tumor cells IP, 7 days growth, then 14 days IP therapy

CC(C)(O)/C=C/C(=O)[C@](C)(O)[C@H]1[C@@H](O)C[C@@]2(C)[C@@H]3CC=C4[C@H](C=C(O)C(=O)C4(C)C)[C@]3(C)C(=O)C[C@]12C [JSI-124, cucurbitacin I]
Emax ([1]; Homo sapiens): ≤ 99%
EC50 ([1]; Homo sapiens, read-out: EC50 (viability, luminescence relative to DMSO), patient DF3266): ~0.01 µM
EC50 ([1]; Homo sapiens, read-out: EC50 (viability, luminescence relative to DMSO), patient DF3291): ~0.1 µM
EC50 values, single-agent cytotoxic activity ([1]; all tested models (DF3266, DF3288, DF3291)): nanomolar ranges
Number of spheroids vs DMSO control ([2]; Kuramachi): significantly reduced the number of spheroids
Formation of spheroids vs DMSO control ([2]; OVCAR4, OVCAR8, OVASHO, TYKNU): completely abrogated the formation of spheroids
STAT3-dependent luciferase activity [3]: significant reduction in STAT-dependent expression
Established SC tumors [4, 8]: significant and near complete elimination of SC tumors
mean day 15 log BLI signal±standard deviation [4, 8]: 8.52×10^8±3.1×10^8 p/s
Growth of SC tumors [4, 9]: significantly inhibit development of tumors growth of SC tumors
mean day 15 log BLI signal±standard deviation [4, 9]: 5.55×10^8±2.2×10^8 p/s
Viability (CellTiterGlo), cell killing [5]: most effective compound leading to cell killing
BLI signal of established malignant ascites [6, 10]: significant reduction in BLI signal of malignant ascites
mean day 15 log BLI signal±standard deviation [6, 10]: 1.29×10^9±6×10^8 p/s
Development of malignant ascites [6, 11]: completely abrogated development of malignant ascites
mean day 15 log BLI signal±standard deviation [6, 11]: 1.47×10^8±6.5×10^7 p/s
Adverse effect (body weight, ascites/edema) [7]: increased weight due to increased non-malignant ascites
